Consider 3 molecules from patent US20020151588A1, “Dissociated glucocorticoid receptor antagonists for the treatment of glucocorticoid associated side effects” (priority 2000, published 2002).

Data set [1] concerns LPS-induced IL-8 secretion in U-937 cells. Kind of data set: GR-mediated inhibition of LPS-induced IL-8 secretion in U-937 cells. The format is cell-based, human. Conditions: 1 μg/ml LPS. As to the method: U-937 cells were incubated for 4 days in RPM11640 medium containing 10% CCS (charcoal treated calf serum). […] Control cells were treated with 0.1% DMSO.
Eighteen hours later the IL-8 concentration in the cell supernatant was measured by ELISA, using the “OptEIA human IL-8 set” (Pharmingen, Cat.No. 2654KI) (FIG. 5a).
The steroidal not dissociated GR/PR antagonist RU486 was used as control (FIG. 5b).

A further data set concerns the target recombinant human GR (Homo sapiens, UniProt P04150). Kind of data set: GR Competitive Binding Assay. Conditions: after correction for compound determined to be in solution by HPLC analysis; read-out: IC50, competition with [6,7-3H(N)]-dexamethasone for binding to GR. The protocol: All procedures were performed at 4° C.
Test compounds were dissolved to 1 mM in neat DMSO and then further diluted to 10×assay concentration in assay buffer supplemented with 10% v/v DMSO.

Data set [2] concerns tyrosine aminotransferase (TAT) in mice liver. Put plainly: TAT induction in mice liver. The format is in vivo. Conditions: for TAT-induction ± S.E.M.: mice liver, 8 hours after administration. The protocol: (§1) Female albino mice (Han:NMRI) obtained form Harlan and weighing about 20-25 g were used. The animals were provided with standardized pellet diet (Altromin 8013) and had tap water freely available. The animals were accommodated in a climate room with a 12-hour light/dark cycle and kept in groups.
(§2) All test compounds were administered orally (0.2 ml/10 g body weight (bw) ) in a dose of 100 mg/kg p.o. The compounds were “dissolved” in 0.2% hydroxypropylmethylcellulose and olive oil mixed 1:1 (v/v).
Eight hours after compounds were administered the animals were killed and a punch (diameter 8 mm) was taken from the liver and immediately frozen in liquid nitrogen. The weighed liver punches were thawed for 3 minutes and homogenized after the addition 1 ml of phosphate buffer (pH 7.6) using a tissue homogenizer as described above. After centrifugation the supernatants were frozen at −20° C. until processing. For processing the samples were thawed and protein was determined using a kit employing 96 well microtiterplates commercially available from Fa. Pierce (No 23225). The activity of tyrosineaminotransferase (TAT) was determined in the supernatant, which was diluted 1:100 in phosphate buffer. The reaction is started by the addition of tyrosine in pyrodoxal-5-phosphate and α ketoglutaric acid at pH 7.6 and incubated for 30 minutes at 37° C. The reaction is stopped by the addition of 10 M KOH and a further incubation of 30 minutes is allowed for the formation of p-hydroxy-benzylaldehyde, which can be measured at 492 nm using a microplate reader. The values (optical densities) are calculated with respect to the protein concentration (O.D./mg protein) (Table 1a and b).

For data set [3], the system named is tyrosine aminotransferase (TAT) in rat hepatoma cells. Kind of data set: Induction of tyrosine aminotransferase (TAT) in H4-II-E-C3 rat hepatoma cells. The format is cell-based. As to the method:
H4-II-E-C3 rat hepatoma cells were incubated overnight in 96 well plates (20,000 cells/200 μl/well) in EMEM medium containing 10% heat inactivated FBS (fetal bovine serum). […] Control cells were treated with 0.1% DMSO. After 18 hours, the cells were lysed in a buffer containing 0.1% Triton X-100 and the TAT activity was measured in a photometric assay using tyrosine and -keto g lutarate as substrates (FIG. 3a).
The steroidal not dissociated GR/PR antagonist RU486 was used as control (FIG. 3b).

The test system of data set [4] is croton-oil induced ear edema, carrageenan-induced paw edema; systemic side-effects of glucocorticoids. Put plainly: In vivo co-administration with dexamethasone or prednisolone in inflammation models.
Data set [5] has as its system PMA-induced neutrophils influx in mice ear. Kind of data set: PMA-induced ear edema in mice (myeloperoxidase). Format: in vivo. As to conditions: for Myeloperoxidase (treated-untreated ear) ± S.E.M.: 24 hours after PMA. As to the method:
as §1, §2
Mice were lightly anaesthetized by ether and 50 ng PMA (5 μl) were applied to each side of the left ear. […] The animals were sacrificed by ether 24 hours later, and a biopsy (diameter 8 mm) was punched out from both ears to assess an increase of neutrophils in the left ear compared with the right ear. Tissue samples were homogenized in 1 ml 0.5% HTAB (Hexadecyl-trimethyl-ammonium-bromide; Sigma H-5882; dissolved in 0.05 M phosphate buffer, pH 6.0) using a tissue homogenizer (IKA-Ultraturrax T5; Janke & Kunkel, Staufen/Breisgau) at 30000 RPM for 15 seconds under cooling. After centrifugation (16000 g, 5 min) the supernatants were frozen until processing for myeloperoxidase (MPO). Determination in the supernatants for MPO, a neutrophil marker enzyme, served as a quantitative index for the neutrophil accumulation. MPO was determined spectrophotometrically at 450 nm using a microplate version of the method of Bradley (1982) and microplate reader (Vmax; Molecular Devices, Palo Alto) suitable for kinetic measurements. The values are expressed as increase in milli optical densities per min (m O.D./min) (Table 1a and b).

For data set [6], the system named is MMTV-(mouse mammary tumor virus) promoter in HeLa cells. Kind of data set: Stimulation of MMTV promoter (luciferase) in HeLa cells. The format is cell-based. As to the method: HeLa cells stably co-transfected with the pHHLuc-construct containing a fragment of the MMTV-LTR (−200 to +100 relative to the transcription start site) cloned in front of the luciferase gene and the pcDNA3.1 plasmid (Invitrogen) constitutively expressing the resistance for the antibioticum geneticin. Clones with best induction of the MMTV-promoter were selected and used for further experiments.
Cells were cultured overnight in DMEM medium w/o phenol red supplemented with 3% CCS (charcoal treated calf serum) and then transferred to 96 well plates (20,000 cells/100 μl/well). […] Control cells were treated with DMSO only. Twenty four hours later the cells were lysed with cell lysis reagent (Promega, Cat. No. E1531), luciferase assay reagent (Promega, Cat. No. E1501) was added and the flash luminescence was measured using a BMG luminometer (FIG. 4a).
The steroidal non-selective GR/PR antagonist RU486 was used as control (FIG. 4b).

Data set [7] has as its system ICAM-promoter in HeLa cells. Put plainly: Inhibition of TNF-α induced activation of the ICAM-promoter (luciferase) in HeLa cells. Format: cell-based, human. As to conditions: 20 ng/ml TNF-α. The protocol:
HeLa cells were stably co-transfected with a construct containing a 1.3 kb fragment of the human ICAM-promoter (−1353 to −9 relative to the transcription start site, cloned in front of the luciferase gene and the pcDNA3.1 plasmid (Invitrogen) which constitutively express the resistance for the antibioticum geneticin. Clones with best induction of the ICAM-promoter were selected and used for further experiments. Cells were transferred to 96 well plates (20,000 cells/100 μl/well) in DMEM medium supplemented with 3% CCS. On the following day the activation of the ICAM-promoter was induced by addition of 20 ng/ml recombinant TNF-α (R&D System, Cat. No. 210-TA). […] Control cells were treated with DMSO only. Twenty four hours later the cells were lysed with cell lysis reagent (Promega, Cat. No. E1531), luciferase assay reagent (Promega, Cat. No. E1501) was added and flash luminescence was measured using a BMG luminometer (FIG. 6a).
The steroidal not dissociated GR/PR antagonist RU486 was used as control (FIG. 6b).

Setting [8] is: co-administered with prednisolone, each 100 mg/kg p.o.

Where “and” joins values, the source holds several entries; their conditions need not be identical. Equal entries are not always repeated.

Chain of recombinant human GR (P04150 whole entry, other chains not shown): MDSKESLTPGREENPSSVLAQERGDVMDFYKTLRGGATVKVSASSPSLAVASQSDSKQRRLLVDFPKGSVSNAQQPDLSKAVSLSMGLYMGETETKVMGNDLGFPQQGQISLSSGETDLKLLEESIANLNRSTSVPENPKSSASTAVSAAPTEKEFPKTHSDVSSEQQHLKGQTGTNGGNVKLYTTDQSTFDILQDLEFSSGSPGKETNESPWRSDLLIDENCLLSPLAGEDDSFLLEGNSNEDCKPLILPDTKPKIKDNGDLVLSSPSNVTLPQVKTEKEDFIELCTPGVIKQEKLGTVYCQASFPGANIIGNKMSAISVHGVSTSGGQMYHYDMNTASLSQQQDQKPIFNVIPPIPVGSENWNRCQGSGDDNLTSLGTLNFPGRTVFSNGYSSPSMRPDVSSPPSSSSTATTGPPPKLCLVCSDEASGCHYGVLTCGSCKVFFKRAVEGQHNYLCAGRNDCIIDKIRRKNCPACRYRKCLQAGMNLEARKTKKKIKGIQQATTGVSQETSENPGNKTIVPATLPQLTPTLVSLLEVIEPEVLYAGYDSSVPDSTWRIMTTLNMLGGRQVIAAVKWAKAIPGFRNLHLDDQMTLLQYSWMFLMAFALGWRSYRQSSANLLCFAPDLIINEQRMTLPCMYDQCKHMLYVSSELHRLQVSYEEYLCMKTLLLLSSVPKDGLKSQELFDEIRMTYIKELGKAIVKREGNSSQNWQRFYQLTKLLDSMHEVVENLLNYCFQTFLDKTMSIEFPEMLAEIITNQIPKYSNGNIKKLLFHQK

For `COc1cc(C(=O)c2cccc(C)c2)c(Oc2c(Br)cc(CC(=O)O)cc2Br)cc1C(C)C` [EXRS1370SE], the “agonistic activity in GR-mediated inhibition of LPS-induced IL-8 secretion” value in data set [1] (18 hours) is “no agonistic”. The “antagonistic activity in GR-mediated inhibition of LPS-induced IL-8 secretion” value in data set [1] (IL-8 secretion inhibited with 3e-8 mol/l dexamethasone) is reported as “no antagonistic activity”. Also, at recombinant human GR, the IC50 worked out at 69 nM. For the same molecule, in data set [2] (100 mg/kg p.o., mice), the “antagonism of the prednisolone-induced induction of tyrosine aminotransferase in liver” value is “can antagonize significantly”. Also, the “TAT-induction ± S.E.M.” value in data set [2] (setting [8]) was determined as 12.00 ± 1.26 O.D./mg protein; in data set [2] (compound alone 100 mg/kg p.o.), 3.85 ± 0.43 O.D./mg protein. Moreover, the “antagonistic activity on dexamethasone-induced TAT-induction” value in data set [3] (rat hepatoma cells pre-stimulated with dexamethasone 3e-9 mol/l) was “shows antagonistic activity”. Further, the “agonistic activity in induction of tyrosine aminotransferase (TAT)” value in data set [3] (rat hepatoma cells, 18 hours) is given as “does not show agonistic activity”. Moreover, in data set [4] (co-administration with dexamethasone or prednisolone), the “systemic side-effect of the glucocorticoids (TAT in liver, blood glucose, free fatty acids level, renal function)” value was “no/reduced a systemic side-effect”. The “anti-inflammatory activity of the glucocorticoid on co-administration” value in data set [4] (co-administration with dexamethasone or prednisolone in inflammation models) is on record as “retain the anti-inflammatory activity of the glucocorticoid”. Moreover, in data set [5] (100 mg/kg p.o.), the “antagonism of the anti-inflammatory effect of prednisolone in the ear inflammation model” value is listed as “does not significantly antagonize”. In addition, the “Myeloperoxidase (treated-untreated ear) ± S.E.M.” value (“Myeloperoxidase” for short) in data set [5] (setting [8]) is recorded as 140 ± 47 mO.D./min; in data set [5] (compound alone 100 mg/kg p.o.) it was 443 ± 90 mO.D./min. Further, the “antagonistic activity in stimulation of MMTV promoter” value in data set [6] (HeLa cells pre-stimulated with 3e-8 mol/l dexamethasone) is reported as “antagonistic activity”. The “agonistic activity in stimulation of MMTV promoter” value in data set [6] (HeLa cells, 24 hours) was “no agonistic”. Further, in data set [7] (24 hours), the “agonistic activity in inhibition of TNF-α induced activation of the ICAM-promoter” value is “no agonistic”. Besides, the “antagonistic activity in inhibition of TNF-α induced activation of the ICAM-promoter” value in data set [7] (inhibited with 3e-8 mol/l dexamethasone) is on record as “no antagonistic activity”.
`CC#C[C@]1(O)CC[C@H]2[C@@H]3CCC4=CC(=O)CCC4=C3[C@@H](c3ccc(N(C)C)cc3)C[C@@]21C` [Mifepristone, 11-[4-Dimethylamino]phenyl-17-hydroxy-17[1-propynyl]estra-4,9-dien-3-one]: the figures for the “TAT-induction ± S.E.M.” value in data set [2] (setting [8]) and in data set [2] (compound alone 100 mg/kg p.o.) were 6.60 ± 0.38 O.D./mg protein and 4.62 ± 0.36 O.D./mg protein, respectively. In addition, the “Myeloperoxidase” value in data set [5] (setting [8]) is 1565 ± 435 mO.D./min; in data set [5] (compound alone 100 mg/kg p.o.), 931 ± 261 mO.D./min.
Take `C[C@]12C=CC(=O)C=C1CC[C@@H]1[C@@H]2[C@@H](O)C[C@@]2(C)[C@H]1CC[C@]2(O)C(=O)CO` [Prednisolone]: in data set [2] (compound alone 100 mg/kg p.o.), the “TAT-induction ± S.E.M.” value is 17.75 ± 0.86 O.D./mg protein and 13.45 ± 0.93 O.D./mg protein. For the same molecule, the “Myeloperoxidase” value in data set [5] (compound alone 100 mg/kg p.o.) is 48 ± 13 mO.D./min and 34 ± 17 mO.D./min.
